14 compounds from patent US10364263B2, “Cyclic phosphates and cyclic phosphoramidates for the treatment of neurologic disorders” (Retrophin, Inc., priority 2015, dated 2019) can be followed below.

Data set [1] deals with PANK2 silenced human neuroblastoma IMR32 cells (PANK2−/−). The data set can be described thus: Coenzyme A assay in PANK2 silenced cells (LC-MS quantification of free CoA). The settings on record: compound added twice (24 h + 24 h), relative to 0.1% DMSO controls. The format is cell-based. The procedure, abridged:
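Free intracellular CoA was measured by positive-mode LC-MS/MS of 20% TFA extracts, taking 2 μl per 10^6 cells as intracellular volume. Cells were IMR32 with stable lentiviral PANK2 knockdown, dosed twice 24 h apart (48 h total, 0.1% DMSO). Output is fold increase over vehicle.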

Data set [2] is described as follows: Stability in mouse plasma. The class given is in vitro ADME. The procedure: (§1) Compounds and positive control samples were dissolved in 100% DMSO at 3 mM. To investigate the stability of the test compounds in plasma, samples were made by diluting test compounds into plasma from the stock solutions to obtain a test compound concentration of 3 μM (0.1% DMSO). Before addition of a test compound, 990 μl of plasma were preincubated at 37° C. for 5 min in eppendorf. After addition of a test compound, 70 μl for each time point were transferred to a 96-deepwell plate, previously warmed at 37° C. in a DUBNOFF water bath. Each compound was tested at five time points, in duplicate (10, 20, 30, 40 and 60 min). At each time point, an aliquot of 50 μl was taken and transferred to a new 96-deepwell plate, and the reaction was stopped with 200 μl of 100% acetonitrile containing 0.1% formic acid and the appropriate internal standard. Then samples were centrifuged at 1100×g for 30 min at +4° C. and supernatants were transferred to a new 96-deepwell plate. Samples were evaporated under N2 and reconstituted in H2O/ACN 0.1% Formic Acid (98:2). Analysis was performed without a calibration curve (Acquity UPLC-Waters; SciexAPI4000). Time 0 was obtained by adding acetonitrile before addition of the test compound.

Data set [3] in a line: Stability in human plasma. The class given is in vitro ADME. Particulars: 37° C. The procedure:
as §1

The mark [4] stands for this setting: human, plasma, Diastereoisomer A (upfield shift in 31P NMR), read-out: t1/2, Human Plasma, Diastereoisomer A (converted).
Setting [5] is: human, plasma, Diastereoisomer B, read-out: t1/2, Human Plasma, Diastereoisomer B (converted).

With `COC(=O)CCNC(=O)[C@@H]1OP(=O)(OCOC(=O)OCc2cccnc2)OCC1(C)C` (stereo partly drawn) [Compound No. 97, Methyl 3-((4R)-5,5-dimethyl-2-oxido-2-((((pyridin-3-ylmethoxy)carbonyl)oxy)methoxy)-1,3,2-dioxaphosphinane-4-carboxamido)propanoate], in data set [1], the “PANK2−/− CoA (Fold Increase): fold increase in Coenzyme A (CoA) levels relative to controls” value was 77.04 Fold Increase. Besides, the half-life at 3 µM in data set [2] (mouse, plasma) is < 9.6 min; in data set [3] (setting [4]), < 9.6 min.
In the case of `COC(=O)CCNC(=O)[C@@H]1OP(=O)(N[C@H](C)C(=O)OCc2cccnc2)OCC1(C)C` (stereo partly drawn) [compound 28, methyl 3-((4R)-5,5-dimethyl-2-oxido-2-(((R)-1-oxo-1-(pyridin-3-ylmethoxy)propan-2-yl)amino)-1,3,2-dioxaphosphinane-4-carboxamido)propanoate], the “PANK2−/− CoA (Fold Increase): fold increase in Coenzyme A (CoA) levels relative to controls” value in data set [1] came to 0.87 Fold Increase. The half-life at 3 µM in data set [2] (mouse, plasma) is < 9.6 min; in data set [3] (setting [4]) it was > 60 min; in data set [3] (setting [5]) it was 39 min. The “t1/2, Mouse Plasma, Diastereoisomer B” value in data set [2] (mouse, plasma, 3 µM) is <9.6 min.
With `CC(C)(C)C(=O)OCO[P@@]1(=O)OCC(C)(C)[C@H](C(=O)NCCC(=O)OCCc2ccccn2)O1` (single isomer, unassigned) [Compound No. 82], in data set [1], the “PANK2−/− CoA (Fold Increase): fold increase in Coenzyme A (CoA) levels relative to controls” value was found to be 99.82 Fold Increase. Besides, the half-life at 3 µM in data set [2] (mouse, plasma) was < 9.6 min; in data set [3] (setting [4]), 28.8 min.
As for `COC(=O)CCNC(=O)[C@@H]1OP(=O)(OCOC(=O)c2cnccn2)OCC1(C)C` (stereo partly drawn) [compound 86, (((4R)-4-((3-methoxy-3-oxopropyl)carbamoyl)-5,5-dimethyl-2-oxido-1,3,2-dioxaphosphinan-2-yl)oxy)methyl pyrazine-2-carboxylate], the “PANK2−/− CoA (Fold Increase): fold increase in Coenzyme A (CoA) levels relative to controls” value in data set [1] is recorded as 2.45 Fold Increase. The half-life at 3 µM in data set [2] (mouse, plasma) was < 9.6 min; in data set [3] (setting [4]), < 9.6 min; in data set [3] (setting [5]), < 9.6 min. For the same compound, in data set [2] (mouse, plasma, 3 µM), the “t1/2, Mouse Plasma, Diastereoisomer B” value is <9.6 min.
In the case of `COC(=O)CCNC(=O)[C@@H]1OP(=O)(N[C@H](C)C(=O)OCc2cnccn2)OCC1(C)C` (stereo in doubt) [compound 42, methyl 3-((2S,4R)-5,5-dimethyl-2-oxido-2-(((R)-1-oxo-1-(pyrazin-2-ylmethoxy)propan-2-yl)amino)-1,3,2-dioxaphosphinane-4-carboxamido)propanoate], in data set [1], the “PANK2−/− CoA (Fold Increase): fold increase in Coenzyme A (CoA) levels relative to controls” value was 2.42 Fold Increase. In addition, the half-life at 3 µM in data set [2] (mouse, plasma) is < 9.6 min; in data set [3] (setting [4]), > 60 min.
Consider `COC(=O)CCNC(=O)[C@@H]1OP(=O)(OCOC(=O)c2ccncc2)OCC1(C)C` (stereo partly drawn) [Compound No. 72, (((4R)-4-((3-methoxy-3-oxopropyl)carbamoyl)-5,5-dimethyl-2-oxido-1,3,2-dioxaphosphinan-2-yl)oxy)methyl isonicotinate], for which the “PANK2−/− CoA (Fold Increase): fold increase in Coenzyme A (CoA) levels relative to controls” value in data set [1] is given as 34.64 Fold Increase. Also, the half-life at 3 µM is < 9.6 min in data set [2] (mouse, plasma); < 9.6 min in data set [3] (setting [4]); < 9.6 min in data set [3] (setting [5]). The “t1/2, Mouse Plasma, Diastereoisomer B” value in data set [2] (mouse, plasma, 3 µM) was <9.6 min.
Turning to `COC(=O)CCNC(=O)[C@@H]1OP(=O)(OCOC(=O)CN2CCN(C(C)=O)CC2)OCC1(C)C` (stereo partly drawn) [compound 80, methyl 3-((4R)-2-((2-(4-acetylpiperazin-1-yl)acetoxy)methoxy)-5,5-dimethyl-2-oxido-1,3,2-dioxaphosphinane-4-carboxamido)propanoate], the “PANK2−/− CoA (Fold Increase): fold increase in Coenzyme A (CoA) levels relative to controls” value in data set [1] was 1.48 Fold Increase. For the same compound, the half-life at 3 µM in data set [2] (mouse, plasma) is < 9.6 min; in data set [3] (setting [4]), 40.2 min.
In the same order, the values of `COC(=O)CCNC(=O)[C@@H]1O[P@@](=O)(N[C@@H](C)C(=O)OC2Cc3ccccc3C2)OCC1(C)C` [compound 43, 2,3-dihydio-1H-inden-2-yl ((2R,4R)-4-((3-methoxy-3-oxopropyl)carbamoyl)-5,5-dimethyl-2-oxido-1,3,2-dioxaphosphinan-2-yl)-L-alaninate] are 1.97 Fold Increase, < 9.6 min and > 60 min.
As to `C[C@H](NP1(=O)OCC(C)(C)[C@H](C(=O)NCCC(=O)O)O1)C(=O)OCCc1ccccc1` (stereo partly drawn) [compound 41, 3-((4R)-5,5-dimethyl-2-oxido-2-(((S)-1-oxo-1-phenethoxypropan-2-yl)amino)-1,3,2-dioxaphosphinane-4-carboxamido)propanoic acid], the “PANK2−/− CoA (Fold Increase): fold increase in Coenzyme A (CoA) levels relative to controls” value in data set [1] came to 2.02 Fold Increase. The half-life at 3 µM in data set [2] (mouse, plasma) is 12 min; in data set [3] (setting [4]), > 60 min.
On to `COC(=O)CCNC(=O)[C@@H]1OP(=O)(OCOC(=O)C2(C)CN(C(=O)OC(C)(C)C)C2)OCC1(C)C` (stereo partly drawn) [Compound No. 85, 1-(tert-butyl) 3-((((4R)-4-((3-methoxy-3-oxopropyl)carbamoyl)-5,5-dimethyl-2-oxido-1,3,2-dioxaphosphinan-2-yl)oxy)methyl) 3-methylazetidine-1,3-dicarboxylate], for which, in data set [1], the “PANK2−/− CoA (Fold Increase): fold increase in Coenzyme A (CoA) levels relative to controls” value turned out to be 216.8 Fold Increase. Further, the half-life at 3 µM in data set [2] (mouse, plasma) was < 9.6 min; in data set [3] (setting [4]), < 9.6 min; in data set [3] (setting [5]), < 9.6 min. In addition, in data set [2] (mouse, plasma, 3 µM), the “t1/2, Mouse Plasma, Diastereoisomer B” value was <9.6 min.
Consider `COC(=O)CCNC(=O)[C@@H]1OP(=O)(NCCc2ccc(F)cc2)OCC1(C)C` (stereo partly drawn) [compound 129, methyl 3-((4R)-2-((4-fluorophenethyl)amino)-5,5-dimethyl-2-oxido-1,3,2-dioxaphosphinane-4-carboxamido)propanoate], for which the “PANK2−/− CoA (Fold Increase): fold increase in Coenzyme A (CoA) levels relative to controls” value in data set [1] is reported as 0.9 Fold Increase. The half-life at 3 µM was < 9.6 min in data set [2] (Diastereoisomer A (upfield shift in 31P NMR), 3 μM, 37° C., mouse plasma, read-out: t1/2, Mouse Plasma, Diastereoisomer A) and > 60 min in data set [3] (Diastereoisomer A (upfield shift in 31P NMR), read-out: t1/2, Human Plasma, Diastereoisomer A (converted)). The “t1/2, Mouse Plasma, Diastereoisomer B” value in data set [2] (Diastereoisomer B, 3 μM, 37° C., mouse plasma) was <9.6 min. In addition, the “t1/2, Human Plasma, Diastereoisomer B” value in data set [3] (Diastereoisomer B, 3 μM) is >60 min.
In the case of `COC(=O)CCNC(=O)[C@@H]1OP(=O)(N[C@@H](C)C(=O)OCCN2CCOCC2)OCC1(C)C` (stereo partly drawn) [compound 27, methyl 3-((4R)-5,5-dimethyl-2-(((S)-1-(2-morpholinoethoxy)-1-oxopropan-2-yl)amino)-2-oxido-1,3,2-dioxaphosphinane-4-carboxamido)propanoate], the “PANK2−/− CoA (Fold Increase): fold increase in Coenzyme A (CoA) levels relative to controls” value in data set [1] is 1.49 Fold Increase. The half-life at 3 µM was < 9.6 min in data set [2] (mouse, plasma) and > 60 min in data set [3] (setting [4]).
As for `CC(C)(C)C(=O)OCO[P@@]1(=O)OCC(C)(C)[C@H](C(=O)NCCC(=O)OC2CCN(Cc3ccccc3)C2)O1` (stereo partly drawn) [Compound No. 93, (((2S,4R)-4-((3-((1-benzylpyrrolidin-3-yl)oxy)-3-oxopropyl)carbamoyl)-5,5-dimethyl-2-oxido-1,3,2-dioxaphosphinan-2-yl)oxy)methyl pivalate], in data set [1], the “PANK2−/− CoA (Fold Increase): fold increase in Coenzyme A (CoA) levels relative to controls” value is 206.8 Fold Increase. Besides, the half-life at 3 µM in data set [2] (mouse, plasma) is < 9.6 min; in data set [3] (setting [4]) it was > 60 min.
As for `CC(C)(C)C(=O)OCO[P@@]1(=O)OCC(C)(C)[C@H](C(=O)NCCC(=O)OC2CCNC2)O1` (stereo partly drawn) [Compound No. 92, (((2S,4R)-5,5-dimethyl-2-oxido-4-((3-oxo-3-(pyrrolidin-3-yloxy)propyl)carbamoyl)-1,3,2-dioxaphosphinan-2-yl)oxy)methyl pivalate], in data set [1], the “PANK2−/− CoA (Fold Increase): fold increase in Coenzyme A (CoA) levels relative to controls” value is listed as 5.13 Fold Increase. In addition, the half-life at 3 µM in data set [2] (mouse, plasma) is < 9.6 min; in data set [3] (setting [4]) it was 27 min.
